From patent US12668586B2, “AhR inhibitor, use thereof, and preparation method therefor” (CHONGQING PHARSCIN INNOBIO CO., LTD., priority 2021, dated 2026) come the findings set out here.

This assay concerns the target T1, AhR (Homo sapiens, UniProt P35869).
T1 sequence (P35869 11-848): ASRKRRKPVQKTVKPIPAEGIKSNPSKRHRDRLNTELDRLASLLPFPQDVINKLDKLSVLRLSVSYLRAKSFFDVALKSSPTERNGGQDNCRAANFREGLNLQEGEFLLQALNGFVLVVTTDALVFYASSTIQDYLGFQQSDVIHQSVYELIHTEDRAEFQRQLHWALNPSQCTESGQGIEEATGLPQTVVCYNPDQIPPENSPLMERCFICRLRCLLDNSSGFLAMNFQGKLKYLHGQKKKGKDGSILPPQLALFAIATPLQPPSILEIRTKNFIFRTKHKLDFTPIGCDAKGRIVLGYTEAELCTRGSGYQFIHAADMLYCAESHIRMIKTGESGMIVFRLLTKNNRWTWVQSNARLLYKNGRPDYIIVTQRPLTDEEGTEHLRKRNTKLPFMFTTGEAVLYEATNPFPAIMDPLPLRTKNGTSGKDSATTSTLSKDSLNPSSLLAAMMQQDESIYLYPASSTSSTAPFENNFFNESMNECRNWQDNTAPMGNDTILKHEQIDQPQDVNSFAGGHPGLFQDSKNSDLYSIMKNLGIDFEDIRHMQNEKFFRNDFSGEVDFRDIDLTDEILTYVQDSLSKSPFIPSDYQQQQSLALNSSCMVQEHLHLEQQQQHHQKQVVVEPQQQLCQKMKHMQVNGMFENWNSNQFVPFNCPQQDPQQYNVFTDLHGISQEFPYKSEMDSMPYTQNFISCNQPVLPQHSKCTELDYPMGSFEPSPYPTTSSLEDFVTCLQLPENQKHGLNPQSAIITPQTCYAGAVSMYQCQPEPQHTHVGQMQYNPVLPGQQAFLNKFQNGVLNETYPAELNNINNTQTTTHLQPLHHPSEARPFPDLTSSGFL
Briefly: AhR inhibitory activity experiment, in vitro assay 1: HepG2-Lucia AhR cells, Lucia luciferase reporter (QUANTI-Luc). The format is cell-based. The following applies: 24 hours incubation at 37° C., Lucia luciferase in supernatant, read-out: AhR inhibitory activity C50. On the procedure:
Test Example: AhR Inhibitory Activity Experiment
When QUANTI-Luc™ (InvivoGen Company) testing reagents are used, AhR gene signaling pathways can be studied by monitoring the activity of Lucia luciferase in the cell culture supernatant.
In Vitro Assay 1: Assay on Inhibitory Activity in Human Cell Lines
Adherent cell layers of HepG2-Lucia™ AhR cells in a logarithmic growth phase were washed with PBS, and then the cells were isolated with trypsin. The isolated cells were centrifuged at 1000 RPM for 5 minutes, the supernatant was removed, and the cells were re-suspended with a test medium by 1.25×10^5 cells/ml.
20,000 cells were added to each well of a 96-well plate, and the 96-well plate was placed in a CO2 incubator to incubate the cells at 37° C. for 24 hours in the absence (negative control) or presence of test compounds with gradient increasing concentrations (typical dilutions: 169 pmol/L, 0.5 nmol/L, 1.5 nmol/L; 4.6 nmol/L, 13.7 nmol/L, 41 nmol/L, 123 nmol/L, 370 nmol/L, 1.1 μmol/L, 3.3 μmol/L and 10 μmol/L, in triplicate).
The 20 μl/well cell supernatant was transferred to a black 96-well plate, a 50 μL/well QUANTI-Luc™ solution was added, and the activity of Lucia luciferase was measured on a multifunctional ELISA reader Spark 10 M (Tecan Company) through a QUANTI-Luc™ luciferase assay system.
Experimental results are shown in Table 1, wherein for IC50 values, “++++” represents IC50<0.05 μM; “+++” represents IC50 between 0.05 μM and 0.2 μM; “++” represents IC50 between 0.2 μM and 1.0 μM; and “+” represents IC50>1.0 μM.
As to `C[C@H](NC(=O)c1cc(-c2ccc(Cl)cc2)nc(-c2cnn(C)c2)n1)c1cccc(F)c1` [Compound 26, (S)-6-(4-chlorophenyl)-N-(1-(3-fluorophenyl)ethyl)-2-(1-methyl-1H-pyrazol-4-yl)pyrimidine-4-formamide], the IC50 is less than 50 nM.

`Cn1cc(-c2nc(C(=O)NC3(c4ccc(Cl)cc4)CC3)cc(-c3ccc(Cl)cc3)n2)cn1` [Compound 51, (S)-6-(4-chlorophenyl)-N-(1-(4-chlorophenyl)cyclopropylamine)-2-(1-methyl-1H-pyrazol-4-yl)pyrimidine-4-formamide]: the IC50 is less than 50 nM.

As to `Cn1cc(-c2nc(C(=O)NC3(C)CCN(CC#N)CC3)cc(-c3ccc(Cl)cc3)n2)cn1` [Compound 46, 6-(4-chlorophenyl)-N-(1-(cyanomethyl)-4-methylpiperidin-4-yl)-2-(1-methyl-1H-pyrazol-4-yl)pyrimidine-4-formamide], the IC50 was less than 50 nM.

In the case of `C[C@H](NC(=O)c1cc(-c2ccc(Cl)cc2)nc(-c2cnn(C)c2)n1)c1ccc2ncn(C)c2c1` [Compound 54, (S)-6-(4-chlorophenyl)-N-(1-(1-methyl-1H-benzo[d]imidazol-6-yl)ethyl)-2-(1-methyl-1H-pyrazol-4-yl)pyrimidine-4-formamide], the IC50 is less than 50 nM.

For the compound `C[C@H](NC(=O)c1cc(-c2ccc(Cl)cc2)nc(-c2cnn(C)c2)n1)c1ccccc1C(F)(F)F` [Compound 24, (S)-6-(4-chlorophenyl)-N-(1-(o-trifluoromethylphenyl)ethyl)-2-(1-methyl-1H-pyrazol-4-yl)pyrimidine-4-formamide], the IC50 was in the range of 200 to 1000 nM.

Consider `C[C@H](NC(=O)c1cc(-c2ccc(Cl)cc2)nc(-c2cnn(C)c2)n1)c1ccc(F)c(C#N)c1` [Compound 40, (S)-6-(4-chlorophenyl)-N-(1-(3-cyano-4-fluorophenyl)ethyl)-2-(1-methyl-1H-pyrazol-4-yl)pyrimidine-4-formamide], for which the IC50 was less than 50 nM.

In the case of `CC(=O)Nc1ccc([C@H](C)NC(=O)c2cc(-c3ccc(Cl)cc3)nc(-c3cnn(C)c3)n2)cc1F` [Compound 53], the IC50 is less than 50 nM.

For `C[C@H](NC(=O)c1cc(-c2ccc(Cl)cc2)nc(-c2cnn(C)c2)n1)c1ccc(F)c(F)c1` [Compound 1, (S)-6-(4-chlorophenyl)-N-(1-(3,4-difluorophenyl)ethyl)-2-(1-methyl-1H-pyrazol-4-yl)pyrimidine-4-formamide], the IC50 is less than 50 nM.

As to `Cn1cc(-c2nc(C(=O)Nc3n[nH]c4ccccc34)cc(-c3ccc(Cl)cc3)n2)cn1` [Compound 41, 6-(4-chlorophenyl)-N-(1H-indazol-3-yl)-2-(1-methyl-1H-pyrazol-4-yl)pyrimidine-4-formamide], the IC50 is more than 1000 nM.

For the compound `C[C@H](NC(=O)c1cc(-c2ccc(Cl)cc2)nc(-c2cnn(C)c2)n1)c1ccc(C#N)c(F)c1` [Compound 57, (S)-6-(4-chlorophenyl)-N-(1-(3-fluoro-4-cyanophenyl)ethyl)-2-(1-methyl-1H-pyrazol-4-yl)pyrimidine-4-formamide], the IC50 is less than 50 nM.

`Cn1cc(-c2nc(C(=O)NC3(c4ccc(F)c(F)c4)CC3)cc(-c3ccc(Cl)cc3)n2)cn1` [Compound 7, (S)-6-(4-chlorophenyl)-N-(1-(3,4-difluorophenyl)cyclopropyl)-2-(1-methyl-1H-pyrazol-4-yl)pyrimidine-4-formamide]: the IC50 is less than 50 nM.

Consider `C[C@H](NC(=O)c1cc(-c2ccc(Cl)cc2)nc(-c2cnn(C)c2)n1)c1ccn2ncnc2c1` [Compound 17], for which the IC50 was less than 50 nM.
